Laboratory results as given in publication PMC13144739, “Global analysis of cancer cell responses to USP9X inhibition” (The EMBO Journal, 2026).

What was measured:
USP9X catalytic domain = target: T1, USP9X catalytic domain (Homo sapiens, UniProt Q93008); experiment: Ub-Rho cleavage assay; assay type: biochemical; conditions: relative to WEHI-553
T1 construct: His/SUMO (pOPIN-S vector) (N, cleaved yes); made in house; host or cells: E. coli BL21
T1 sequence (Q93008 1551-1970): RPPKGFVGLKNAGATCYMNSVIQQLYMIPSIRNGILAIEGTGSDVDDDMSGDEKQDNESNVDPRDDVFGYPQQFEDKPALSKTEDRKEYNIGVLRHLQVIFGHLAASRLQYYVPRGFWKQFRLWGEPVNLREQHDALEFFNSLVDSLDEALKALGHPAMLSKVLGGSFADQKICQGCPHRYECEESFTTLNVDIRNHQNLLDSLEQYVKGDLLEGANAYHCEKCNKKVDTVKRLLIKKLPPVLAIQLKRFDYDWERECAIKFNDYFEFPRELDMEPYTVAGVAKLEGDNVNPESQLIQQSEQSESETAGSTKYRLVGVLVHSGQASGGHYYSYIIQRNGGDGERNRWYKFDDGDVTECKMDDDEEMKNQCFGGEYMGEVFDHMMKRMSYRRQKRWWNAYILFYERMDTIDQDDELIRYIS
Method: The reaction was stopped through the addition of 10 mM citric acid. The assay was performed in 384-well format with a total reaction volume of 16 µL. Data was collected using the ClarioSTAR plate reader (BMG Labtech) at an emission of 535 nm. […] IC50 values presented in our study are the mean of three independent biological repeats unless indicated otherwise.

CEP55 = CEP55 degradation by Western Blot in MDA-MB-231 cells; assay type: cell-based, human
Method: The next day, cells were lysed in DISC lysis buffer (20 mM TRIS/HCl [pH 7.5], 150 mM NaCl, 2 mM EDTA [pH 8.0], 1% [v/v] Triton X 100, 10% [v/v] glycerol) supplemented with 2% (w/v) SDS and PhosSTOP tablets (Roche). To shred DNA, DISC lysates were run through polypropylene columns (Pierce). […] Next, membranes were washed twice in TBS-T and incubated with primary antibodies at 4 °C o/n. Primary antibodies were diluted in antibody dilution buffer (5% [w/v] BSA [pH 5.2, Sigma-Aldrich] in TBS-T with 0.04% [v/v] sodium azide) as per the manufacturer’s instructions. […] Next, membranes were washed four times for 5 min each in TBS-T. Membranes were developed in ECL (Bio-Rad) and imaged using the ChemiDoc imaging system (Bio-Rad). Images were processed using Image Lab software.
Appendix Fig S4. WEHI-092 phenotypes across cell lines.
(A) IC50 of USP9X inhibitors in MDA-MB-231 cells measured via degradation of the USP9X substrate CEP55 by Western Blot. The compounds were incubated with cells for […]
biological repeats. Error bars, s.e.m. (B) Western Blot analysis of USP9X expression levels across a subset of cell lines used in this study. Representative blot from two independent biological repeats is shown with Actin as a sample loading control. l.p. - low passage; h.p. - high passage. […]
Right, quantification of images plotted as dose-dependent colony area. […]

PANC-1 cells = experiment: Colony formation assay, PANC-1; assay type: cell-based, human; conditions: 10 µM, 7–12 days
Method: Cells were seeded at low density (200–4000 cells per well) after initial optimisation in a six-well tissue culture-treated plate (Falcon). Twenty-four hours post seeding, media was replaced, and the inhibitor was added. Cells were left to grow into colonies between 7 and 12 days, depending on the cell line. For analysis, the media was removed, and the cells were fixed with 10% (w/v) formalin for 10 min. Colonies were stained with crystal violet (Sigma-Aldrich, 0.5% [w/v] in 20% [v/v] MeOH) for 10 min and washed thrice with distilled H2O. Plates were imaged using the ChemiDoc imaging system (Bio-Rad) and analysed using the ImageJ ColonyArea plugin as described previously (Guzmán et al, [2014]).

MDA-MB-231 cells = experiment: Lattice light sheet imaging of mitosis, MDA-MB-231; assay type: cell-based, human; conditions: 15 µM
Method: MDA-MB-231, MiaPaca2, HMEC-1, SK-MEL-2 and UO-31 cells were seeded at 2–15 × 10^4 cells/mL in 8-well glass µ-slides (ibidi). […] SPY650-Tubulin, SPY555-DNA (both Spirochrome, Inc.), and Annexin V FITC (Sigma-Aldrich) were added at a final concentration of 1 in 1000. Cells were left to grow for 24 h before time-lapse live-cell data were acquired using a Lattice Light Sheet 7 (Zeiss). […] Aberration correction was set to a value of 170 to minimise aberrations as determined by imaging the Point Spread Function using 100 nm fluorescent microspheres. Data were collected with a frame time of 10 ms and a z step of 0.4 μm with 834 frames per 290 μm by 290 μm. Individual regions were imaged in parallel across six wells of the eight-well chamber slide. Data are presented as Maximum Intensity Projections (MIPs), and these MIPs were used for all downstream analysis. Tile regions were imaged for 24 h with 10 min intervals at 37 °C, 5% CO2. Analysis was performed using the MIPs of the different full fields of cells over the 24–48 h time period. Mitosis and mitosis arrest were classified through a combination of automated image analysis and manual validation. […] Small erroneous detected spots were further removed through a manually adjusted size filter. […] The mean intensity of all tracks was then measured to determine mitosis and mitosis arrest. […]

## Cc1[nH]c2ccc(C(=O)N3CCN(S(=O)(=O)c4ccc5c(c4)OCCO5)CC3)cc2c1C [WEHI-092]
USP9X catalytic domain
  improvement of IC50 towards USP9X by SAR: > 16 fold
CEP55; Homo sapiens, MDA-MB-231 cells, 24 h, read-out: apparent IC50 (CEP55 destabilisation, based on Western blotting)
  IC50: 1300 nM
CEP55; dose-dependent, Western blot
  CEP55 protein level: destabilised
PANC-1 cells
  clonogenic potential, PANC-1: strong decrease in proliferative capacity
MDA-MB-231 cells
  apoptosis on metaphase arrest (Annexin V uptake), MDA-MB-231: did not trigger apoptosis
MDA-MB-231 cells; imaged 24-48 h
  cell division phenotype, MDA-MB-231: significant defects in cell division
